How the values were obtained:
[1] = biological target: T1, glutamine-binding protein (GlnBP) (Escherichia coli, UniProt P0AEQ3); experiment: Isothermal titration calorimetry (ITC, this work); design: species or system E. coli; settings: 20°C, read-out: K D (ITC, this work)
T1 construct: Uniprot entry P0AEQ3, residues 23–248; made in house; host or cells: E. coli BL21(DE3)
Protocol: (§1) All ITC measurements were conducted on a Malvern MicroCal PEAQ ITC at 20°C with stirring at 200 rev min^−1 using the same buffer as in SAXS measurements. The cell was initially loaded with 200 µl of 20 µM protein with an initial ligand concentration of 200 µM in the syringe to quantify His:HisBP binding. This was further adjusted in subsequent runs to resolve weaker interactions as necessary.

[2] = biological target: T2, histidine-binding protein (HisBP) (Escherichia coli, UniProt P0AEU0); experiment: NMR chemical shift perturbation titration; design: Uniprot entry P0AEU0, residues 23–260; His6 tag with TEV cleavage site (N, cleaved yes); made in house; host or cells: E. coli BL21(DE3); species or system E. coli; settings: HisBP 200 µM, 298 K, chemical shift perturbations; read-out: K D (NMR)
Excerpt: All NMR experiments have been carried out at 298 K on an 800 MHz Bruker Avance III NMR spectrometer equipped with a cryogenic probehead. […] Data were processed with NMRpipe (Delaglio et al., 1995[▸]), analyzed using NMRFAM-Sparky (Lee et al., 2015[▸]) and visualized with Python modules nmrglue and matplotlib (Helmus & Jaroniec, 2013[▸]; Hunter, 2007[▸]).
Backbone assignments of apo- and His-bound HisBP have been derived from BMRB entries 19242 and 19245 (Chu et al., 2013[▸]). The assignment of Arg-bound HisBP is produced by extending the apo-HisBP assignment along titrations, leaving sites in slow exchange unassigned. For affinity computations based on chemical shift perturbations, ^1H and ^15N shifts have been combined to a composite shift δ = [(δH)^2 + (0.2δN)^2]^1/2. The derivation of an overall dissociation constant from chemical shift perturbations follows the work by Williamson (2013[▸]), where the shift in peak position is used to derive free and bound populations without considering peak intensities. The effect of site-specific exchange rates upon peak positions is taken into account (London, 1993[▸]). We discarded residues with either insignificant shifts at saturation (δ < 0.05) or which were in slow exchange such that peak positions alone were no longer informative. […]

HisBP = biological target: HisBP; design: method as in Paul et al. (2016); settings: ref Paul et al. (2016), read-out: K D (ITC, literature); cited from earlier work
GlnBP = biological target: GlnBP; design: method as in Clifton & Jackson (2016); settings: ref Clifton & Jackson (2016), read-out: K D (ITC, literature); cited from earlier work
[3] = biological target: T1, glutamine-binding protein (GlnBP); experiment: SAXS-based ligand titration; design: species or system E. coli; settings: ESRF, 3.0 × 10^12 photons, GlnBP 80 µM; 'no change' = no significant changes in scattering curves
Excerpt: Their preliminary results have been excluded from this report.

[4] = biological target: T2, histidine-binding protein (HisBP); experiment: biochemical
Protocol: Titrations were conducted at fixed protein concentrations to exclude signal-to-noise factors. An initial mass concentration of 2.0 or 4.0 mg ml^−1 was employed in prospective experiments, then scaled to 2.0, 1.0, 0.5 and 0.25 mg ml^−1 in later concentration-variation studies. […] A total of eight beamline experiments were conducted, using the automated sample changing environments available on site, operated in constant-flow mode: three times at ESRF BM29, three at DESY P12, once at Australian Synchrotron SAXS/WAXS and once at Diamond B21. […] Furthermore, experiments at ESRF BM29 and Diamond B21 were carried out on site, while the DESY P12 experiment was carried out by mail-in. For these measurements, samples were prepared by pipetting ligand–protein mixtures onto 96-well plates prior to transport. As for the Australian Synchrotron measurements, apo–HisBP was lyophilized in its final buffer and reconstituted on site using pure H2O and then mixed with the ligands in 96-well plates.
Buffer-subtracted intensities provided from respective synchrotron pipelines were used as starting points for analysis. […] Thus, an intermediate value of 7.2 nm was fixed for all computations involving D max including V R.
This was used to assist in locating data points affected by sample handling errors or measurement failures, along with detectable aggregation. The ideal minimum angle after removal of parasitic scattering is 0.1–0.15 nm^−1, although a more conservative cutoff was used to collectively eliminate residual aggregation. The maximum usable q was determined by visual inspection of noise. The final ranges used across all HisBP beamline sessions were: 0.2–2.0 nm^−1 at 20 µM and below, 0.25–2.5 nm^−1 at 40 µM, and 0.3–3 nm^−1 above 80 µM. The q-ranges for DEBP and GlnBP were set to 0.1–2.8 nm^−1.
A common scattering reference is created per HisBP concentration and per beamline experiment by averaging apo protein replicates after discarding outliers. This reference is used for both V R and χlin computations.
To fit binding curves against metrics, we consider all titrations conducted per protein concentration per beamline experiment as a single set, after removing data points resulting from aggregation, preparation errors or measurement errors. […] Since the two-state binding curve at constant [R] cannot effectively discriminate between K D values much larger or smaller than [R], fitted K D values are limited to within four orders of magnitude of the receptor concentration (cf. Fig. S1). […] Error bars indicate σ of logK D from the ensemble of replicate predictions. For metrics where uncertainty was not computed (V R and V P), the uncertainty was estimated by single-point removal, where K D was recomputed after removal of each titration point. The σ of the resulting replicates are taken as the σ of logK D. To eliminate cases where the fitting process fails due to ill-constrained parameters, replicates were discarded if the fitted apo–holo differences were >3σ from the mean value of all replicates.

[5] = biological target: T2, histidine-binding protein (HisBP); experiment: biochemical; remark: listed apart in the source
Protocol: as §1

T2 sequence (P0AEU0 23-260): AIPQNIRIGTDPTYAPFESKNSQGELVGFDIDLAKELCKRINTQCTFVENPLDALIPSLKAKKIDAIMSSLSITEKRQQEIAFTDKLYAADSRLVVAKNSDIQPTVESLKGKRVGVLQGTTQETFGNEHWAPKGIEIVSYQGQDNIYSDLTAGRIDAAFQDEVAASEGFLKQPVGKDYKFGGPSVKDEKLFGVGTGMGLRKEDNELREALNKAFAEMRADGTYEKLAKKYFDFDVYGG
T1 sequence (P0AEQ3 23-248): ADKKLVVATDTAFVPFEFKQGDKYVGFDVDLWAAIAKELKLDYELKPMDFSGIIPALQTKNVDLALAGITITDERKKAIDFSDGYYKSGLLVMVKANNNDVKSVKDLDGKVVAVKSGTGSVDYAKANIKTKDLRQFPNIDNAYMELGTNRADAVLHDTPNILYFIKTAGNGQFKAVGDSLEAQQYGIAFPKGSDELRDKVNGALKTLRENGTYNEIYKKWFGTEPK

For `N=C(N)NCCC[C@H](N)C(=O)O` [Arg, arginine], the Kd [1] is given as 78.9 ± 8.6 µM, the Kd [2] is given as 0.56 µM and the Kd (HisBP) is given as 3 ± 1 µM. The Kd (GlnBP) was 93.8 ± 7.4 µM, the “K D derived from V R titration curves (result in words)” value [3] was “No change” and the Kd ([4]; K D fitted to SAXS V R titration curves, AustSynch, 20s exposure, […] 10^13 photons, HisBP 19 µM) was 2.8 ± 0.31 µM. The Kd ([4]; K D fitted to SAXS V R titration curves, AustSynch, 20s exposure, […] 10^13 photons, HisBP 38 µM) was 3 ± 1.4 µM, the Kd ([4]; K D fitted to SAXS V R titration curves, AustSynch, 20s exposure, […] 10^13 photons, HisBP 76 µM) was 5.5 ± 1.4 µM and the Kd ([4]; K D fitted to SAXS V R titration curves, DESY, 4s exposure, […] 10^13 photons, HisBP 20 µM) was 33 ± 4.5 µM. The Kd ([4]; K D fitted to SAXS V R titration curves, DESY, 4s exposure, […] 10^13 photons, HisBP 40 µM) was 74 ± 19 µM, the Kd ([4]; K D fitted to SAXS V R titration curves, DESY, 4s exposure, […] 10^13 photons, HisBP 80 µM) was 5.9 ± 0.6 µM and the Kd ([4]; K D fitted to SAXS V R titration curves, Diamond, 40s exposure, […] 10^14 photons, HisBP 10 µM) was 0.37 ± 0.14 µM. For the same molecule, the Kd ([4]; K D fitted to SAXS V R titration curves, Diamond, 40s exposure, […] 10^14 photons, HisBP 20 µM) was 0.92 ± 0.11 µM, the Kd ([4]; K D fitted to SAXS V R titration curves, Diamond, 40s exposure, […] 10^14 photons, HisBP 40 µM) was 4.8 ± 0.48 µM and the Kd ([4]; K D fitted to SAXS V R titration curves, Diamond, 40s exposure, […] 10^14 photons, HisBP 80 µM) was 7.3 ± 1.9 µM. It also gave a Kd ([4]; K D fitted to SAXS V R titration curves, ESRF, 5s exposure, 3.0 × 10^12 photons, HisBP 38 µM) of 2 ± 1.9 µM, a Kd ([4]; K D fitted to SAXS V R titration curves, ESRF, 5s exposure, 3.0 × 10^12 photons, HisBP 160 µM) of 0.71 ± 1 µM and a Kd ([4]; KD fitted to SAXS Rg curves, AustSynch, 20s exposure, HisBP 19 µM) of 7.7 ± 2 µM. It also gave a Kd ([4]; KD fitted to SAXS Rg curves, AustSynch, 20s exposure, HisBP 38 µM) of 0.052 ± 0.04 µM, a Kd ([4]; KD fitted to SAXS Rg curves, AustSynch, 20s exposure, HisBP 76 µM) of 1.6 µM and a Kd ([4]; KD fitted to SAXS Rg curves, DESY, 4s exposure, HisBP 20 µM) of 15 ± 6.8 µM. The Kd ([4]; KD fitted to SAXS Rg curves, DESY, 4s exposure, HisBP 40 µM) was 150 ± 52 µM, the Kd ([4]; KD fitted to SAXS Rg curves, DESY, 4s exposure, HisBP 80 µM) was 27 ± 7.1 µM and the Kd ([4]; KD fitted to SAXS Rg curves, Diamond, 40s exposure, HisBP 20 µM) was 0.81 µM. The Kd ([4]; KD fitted to SAXS Rg curves, Diamond, 40s exposure, HisBP 40 µM) was 1.5 ± 4.4 µM, the Kd ([4]; KD fitted to SAXS Rg curves, Diamond, 40s exposure, HisBP 80 µM) was 1.1 ± 2.5 µM and the Kd ([4]; KD fitted to SAXS Rg curves, ESRF, 5s exposure, HisBP 38 µM) was 2.6 µM. The Kd ([4]; KD fitted to SAXS Rg curves, ESRF, 5s exposure, HisBP 160 µM) was 0.39 ± 0.28 µM, the Kd ([4]; KD fitted to SAXS Vc curves, AustSynch, 20s exposure, HisBP 19 µM) was 2.1 ± 6 µM and the Kd ([4]; KD fitted to SAXS Vc curves, AustSynch, 20s exposure, HisBP 38 µM) was 3.7 ± 6.6 µM. The Kd ([4]; KD fitted to SAXS Vc curves, AustSynch, 20s exposure, HisBP 76 µM) was 2 µM, the Kd ([4]; KD fitted to SAXS Vc curves, DESY, 4s exposure, HisBP 20 µM) was 6.3 µM and the Kd ([4]; KD fitted to SAXS Vc curves, DESY, 4s exposure, HisBP 80 µM) was 0.017 ± 0.041 µM. For the same molecule, the Kd ([4]; KD fitted to SAXS Vc curves, Diamond, 40s exposure, HisBP 20 µM) was 6.3 µM, the Kd ([4]; KD fitted to SAXS Vc curves, Diamond, 40s exposure, HisBP 80 µM) was 0.038 µM and the Kd ([4]; KD fitted to SAXS Vc curves, ESRF, 5s exposure, HisBP 7.6 µM) was 0.28 ± 0.72 µM. For the same molecule, the Kd ([4]; KD fitted to SAXS Vc curves, ESRF, 5s exposure, HisBP 38 µM) was 0.075 µM, the Kd ([4]; KD fitted to SAXS Vc curves, ESRF, 5s exposure, HisBP 160 µM) was 0.91 µM and the Kd ([4]; KD fitted to SAXS χlin. curves, AustSynch, 20s exposure, HisBP 19 µM) was 11 ± 7.6 µM. It also gave a Kd ([4]; KD fitted to SAXS χlin. curves, AustSynch, 20s exposure, HisBP 38 µM) of 10 ± 2 µM, a Kd ([4]; KD fitted to SAXS χlin. curves, AustSynch, 20s exposure, HisBP 76 µM) of 11 ± 1.4 µM and a Kd ([4]; KD fitted to SAXS χlin. curves, DESY, 4s exposure, HisBP 20 µM) of 4.1 ± 2.1 µM. The Kd ([4]; KD fitted to SAXS χlin. curves, DESY, 4s exposure, HisBP 40 µM) was 140 ± 42 µM, the Kd ([4]; KD fitted to SAXS χlin. curves, DESY, 4s exposure, HisBP 80 µM) was 42 ± 6.7 µM and the Kd ([4]; KD fitted to SAXS χlin. curves, Diamond, 40s exposure, HisBP 20 µM) was 1.4 µM. It also gave a Kd ([4]; KD fitted to SAXS χlin. curves, Diamond, 40s exposure, HisBP 40 µM) of 23 ± 7.1 µM, a Kd ([4]; KD fitted to SAXS χlin. curves, Diamond, 40s exposure, HisBP 80 µM) of 0.012 ± 0.02 µM and a Kd ([4]; KD fitted to SAXS χlin. curves, ESRF, 5s exposure, HisBP 7.6 µM) of 1.9 ± 2 µM. For the same molecule, the Kd ([4]; KD fitted to SAXS χlin. curves, ESRF, 5s exposure, HisBP 152 µM) was 0.091 µM and the Kd [5] was 2.06 ± 0.22 µM.

Reference: publication PMC7340254, “Structure-based screening of binding affinities via small-angle X-ray scattering” (IUCrJ, 2020)
